Our source for the IC50 values is US8013153B2, “Substituted pyrimidine kinase inhibitors” (Janssen Pharmaceutica, N.V., priority 2006, dated 2011).

Experiment [1] concerns the target T1, rat VEGF-R2 kinase domain (Rattus norvegicus, UniProt O08775).
T1 construct: amino acids 786-1343 of the rat VEGF-R2 kinase domain; polyhistidine (N)
Description: VEGF-R2 Screening Assay. Type of experiment: biochemical. The following applies: > means no observed 50% inhibition at the indicated test concentration; ~ means approximately 50% inhibition at that concentration; read-out: IC50 VEGF-R2.

The target of a further experiment is T2, murine Aurora-A (Mus musculus, UniProt P97477).
T2 construct: replaced with the full length protein encoding the murine Aurora-A; made in house; host or cells: sf9 insect cells
T2 sequence (P97477 1-395): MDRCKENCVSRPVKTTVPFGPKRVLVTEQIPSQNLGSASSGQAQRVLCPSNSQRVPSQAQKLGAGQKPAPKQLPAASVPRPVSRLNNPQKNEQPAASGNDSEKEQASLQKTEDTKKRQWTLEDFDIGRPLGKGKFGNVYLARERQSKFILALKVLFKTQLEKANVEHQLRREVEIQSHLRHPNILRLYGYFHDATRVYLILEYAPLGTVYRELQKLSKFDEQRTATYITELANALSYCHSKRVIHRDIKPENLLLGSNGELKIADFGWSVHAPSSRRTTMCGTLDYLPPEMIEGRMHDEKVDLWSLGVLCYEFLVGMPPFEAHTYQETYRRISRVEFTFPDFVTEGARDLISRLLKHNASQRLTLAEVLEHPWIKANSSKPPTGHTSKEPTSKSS
Kind of experiment: Aurora-A Screening Assay. Type of experiment: biochemical. On the procedure: (§1) A kinase reaction mixture was prepared containing 50 mM Tris-HCl pH=8, 10 mM MgCl2, 0.1 mM Na3PO4, 1 mM DTT, 10 μM ATP, 0.025 μM biotinylated histone-H1 peptide substrate and 0.2 μCuries per well ^33P-γ-ATP (2000-3000 Ci/mmol). 70 μL of the kinase reaction mixture was dispensed into the well of a streptavidin coated FlashPlate™ (Cat. # SMP103, NEN, Boston, Mass.). Then 1 μL of test compound stock in 100% DMSO was added to the wells resulting in a final concentration of 1% DMSO in the reaction with a 100 μL final reaction volume.
(§2) The CDK1:Cyclin-B protein was diluted in 50 mM Tris-HCl pH=8.0, 0.1% BSA at a concentration of 1 ng per μL and 30 μL (30 ng enzyme per test well) was added to each well to initiate the reaction. The reaction was incubated for one hour at 30° C. At the end of the 1 hour incubation, the reaction was terminated by aspirating the mixture from the plate and washing the wells twice with PBS containing 100 mM EDTA. The histone-H1 biotinylated peptide substrate became immobilized on the Flashplate™ and the incorporation of ^33P-γ-ATP was measured by reading the plate on a scintillation counter. Inhibition of the enzymatic activity of CDK1 was measured by observing a reduced amount of ^33P-γ-ATP incorporated into the immobilized peptide.
The Aurora-A kinase assay was carried out using the CDK kinase assay procedure except that the enzyme was replaced with the full length protein encoding the murine Aurora-A (Accession #GB BC014711) expressed and purified from sf9 insect cells.

Another experiment concerns HCT-116 colon carcinoma. Kind of experiment: Inhibition of in vitro cell proliferation (HCT116).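 Also: cells exposed to compound for 24 h, then 14C-thymidine added for a further 24 h and its uptake into DNA counted by scintillation, DMSO-only wells as control.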 It counts as cell-based, human. The following applies: Homo sapiens, HCT-116, 14C-thymidine incorporation. In general terms: Uptake of a labelled nucleoside into DNA is a usual measure of proliferation.
For a further experiment, the target named is T3, HER2 cytoplasmic domain (Homo sapiens, UniProt P04626).
T3 construct: polyhistidine (N)
T3 sequence (P04626 676-1255 limits assumed): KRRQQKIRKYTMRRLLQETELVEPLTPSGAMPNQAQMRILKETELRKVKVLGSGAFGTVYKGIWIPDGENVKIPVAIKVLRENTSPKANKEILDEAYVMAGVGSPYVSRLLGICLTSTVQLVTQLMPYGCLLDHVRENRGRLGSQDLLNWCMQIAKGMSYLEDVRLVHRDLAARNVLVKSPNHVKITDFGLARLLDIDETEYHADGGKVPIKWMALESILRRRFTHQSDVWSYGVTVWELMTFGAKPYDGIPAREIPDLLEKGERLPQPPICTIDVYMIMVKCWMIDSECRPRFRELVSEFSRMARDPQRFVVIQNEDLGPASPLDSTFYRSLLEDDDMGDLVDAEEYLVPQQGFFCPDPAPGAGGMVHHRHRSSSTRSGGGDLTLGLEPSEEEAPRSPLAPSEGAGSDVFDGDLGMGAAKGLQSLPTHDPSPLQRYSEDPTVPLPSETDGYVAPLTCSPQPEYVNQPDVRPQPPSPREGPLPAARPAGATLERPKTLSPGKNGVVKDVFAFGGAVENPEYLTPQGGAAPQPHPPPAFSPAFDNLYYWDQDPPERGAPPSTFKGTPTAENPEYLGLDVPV
Description: HER2 Kinase Screening Assay. Type of experiment: biochemical. The following applies: > means no observed 50% inhibition at the indicated test concentration; ~ means approximately 50% inhibition at that concentration. As for the experimental part: as §1, §2
The HER2 kinase assay was carried out using the CDK kinase assay procedure except that the enzyme was replaced with a HER2 construct containing a polyhistidine tag at the N-terminus followed by 24 additional amino acids and the HER2 cytoplasmic domain beginning at amino acid 676 (Accession #M11730) to the end.

The subject of experiment [2] is HeLa cervical adenocarcinoma. Kind of experiment: Inhibition of in vitro cell proliferation (HeLa).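 Also: cells exposed to compound for 24 h, then labelled 24 h with methyl 14C-thymidine, with uptake into DNA counted by scintillation against DMSO-only control wells.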 Type of experiment: cell-based, human. The following applies: Homo sapiens, 14C-thymidine incorporation.
In the next experiment the test system is A375 malignant melanoma. Kind of experiment: Inhibition of in vitro cell proliferation (A375).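 Also: cells plated for 24 h, given compound for 24 h, then labelled with 14C-thymidine for another 24 h, with DMSO-only wells as control and counts read by scintillation.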 It counts as cell-based, human. The following applies: Homo sapiens, A-375, 14C-thymidine incorporation.
Another experiment has as its target T4, CDK1:Cyclin-B (Homo sapiens, UniProt P06493).
T4 construct: purchased New England Biolabs, Beverly, Mass; 6020; host or cells: insect cells
Description: CDK1 Screening Assay. Type of experiment: biochemical. As for the experimental part: as §1, §2
The CDK1 used was isolated from insect cells expressing both the human CDK1 catalytic subunit and its positive regulatory subunit cyclin B (New England Biolabs, Beverly, Mass., Cat. #6020).

Each structure is given as a SMILES string.

T4 sequence (P06493 whole entry): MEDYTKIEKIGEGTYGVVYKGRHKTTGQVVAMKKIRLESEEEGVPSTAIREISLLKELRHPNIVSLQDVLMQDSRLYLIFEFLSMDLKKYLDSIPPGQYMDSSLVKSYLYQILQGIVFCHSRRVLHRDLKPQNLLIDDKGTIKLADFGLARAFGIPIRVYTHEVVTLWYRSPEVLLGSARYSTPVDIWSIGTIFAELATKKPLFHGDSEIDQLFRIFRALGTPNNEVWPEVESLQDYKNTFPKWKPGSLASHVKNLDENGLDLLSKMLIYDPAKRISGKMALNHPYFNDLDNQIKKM
T4 sequence (P14635 whole entry partner): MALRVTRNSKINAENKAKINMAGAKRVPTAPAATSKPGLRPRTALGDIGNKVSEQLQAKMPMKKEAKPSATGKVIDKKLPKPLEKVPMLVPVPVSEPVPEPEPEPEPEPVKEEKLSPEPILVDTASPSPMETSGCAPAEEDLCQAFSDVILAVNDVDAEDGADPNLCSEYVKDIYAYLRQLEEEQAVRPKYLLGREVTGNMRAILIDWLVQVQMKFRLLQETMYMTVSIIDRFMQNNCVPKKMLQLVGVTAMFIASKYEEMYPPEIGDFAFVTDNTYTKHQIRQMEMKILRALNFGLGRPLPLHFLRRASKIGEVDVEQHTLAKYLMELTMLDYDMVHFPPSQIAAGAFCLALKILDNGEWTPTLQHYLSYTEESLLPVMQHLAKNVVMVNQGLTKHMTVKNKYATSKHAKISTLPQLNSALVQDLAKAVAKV
T1 sequence (O08775 786-1343): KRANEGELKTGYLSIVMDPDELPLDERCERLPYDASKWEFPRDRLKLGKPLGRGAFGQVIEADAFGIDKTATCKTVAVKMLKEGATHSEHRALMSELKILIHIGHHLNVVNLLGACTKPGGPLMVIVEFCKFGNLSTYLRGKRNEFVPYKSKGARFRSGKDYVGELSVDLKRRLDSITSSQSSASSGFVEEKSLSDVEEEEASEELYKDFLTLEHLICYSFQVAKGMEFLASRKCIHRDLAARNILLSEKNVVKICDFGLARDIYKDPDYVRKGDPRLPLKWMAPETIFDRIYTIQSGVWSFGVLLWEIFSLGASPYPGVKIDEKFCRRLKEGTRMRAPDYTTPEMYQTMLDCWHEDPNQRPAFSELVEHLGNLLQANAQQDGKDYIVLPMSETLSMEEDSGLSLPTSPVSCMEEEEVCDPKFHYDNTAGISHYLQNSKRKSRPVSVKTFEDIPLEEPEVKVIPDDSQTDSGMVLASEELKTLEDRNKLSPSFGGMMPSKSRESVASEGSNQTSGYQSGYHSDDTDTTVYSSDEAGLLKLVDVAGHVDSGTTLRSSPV

As a reminder, the IC50 is the concentration at which inhibition is half-maximal. Regarding `CCCCNC(=O)Nc1ccc(Oc2ncnc(N)c2C=NOC)cc1Cl` [Cpd 64, 1-{4-[6-amino-5-(methoxyimino-methyl)-pyrimidin-4-yloxy]-2-chloro-phenyl}-3-butyl-urea], the IC50 in experiment [1] was 0.0072 µM; on murine Aurora-A, over 100 µM; in the experiment with HCT-116 colon carcinoma, over 100 µM; against HER2 cytoplasmic domain, over 100 µM; in experiment [2] it was over 100 µM; in the experiment on A375 malignant melanoma, over 100 µM. The compound also displayed an IC50 on CDK1:Cyclin-B of over 100 µM.
As to `CON=Cc1c(N)ncnc1Oc1ccc(NC(C)=O)c(Cl)c1` [Cpd 94, N-{4-[6-amino-5-(methoxyimino-methyl)-pyrimidin-4-yloxy]-2-chloro-phenyl}-acetamide], the IC50 in experiment [1] was 2.21 µM; on murine Aurora-A, over 100 µM; in the experiment with HCT-116 colon carcinoma it was 3.62 µM; against HER2 cytoplasmic domain, over 100 µM; in experiment [2] it was 4.02 µM; in the experiment on A375 malignant melanoma it was 2.69 µM. At CDK1:Cyclin-B, this compound registered an IC50 of over 100 µM.
Consider `CON=Cc1c(N)ncnc1Oc1ccc2c(c1)cc(C)n2C(=O)NCCCO` [Cpd 40, 5-[6-amino-5-(methoxyimino-methyl)-pyrimidin-4-yloxy]-2-methyl-indole-1-carboxylic acid (3-hydroxy-propyl)-amide], for which the IC50 is 0.0304 µM in experiment [1]; over 100 µM against murine Aurora-A; 4.54 µM in the experiment with HCT-116 colon carcinoma; over 10 µM against HER2 cytoplasmic domain; 4.24 µM in experiment [2]; 2.59 µM in the experiment on A375 malignant melanoma. The same compound registered an IC50 on CDK1:Cyclin-B of 28 µM.
As for `CON=Cc1c(N)ncnc1Oc1ccc(NC(=O)Nc2cc(C)on2)c(Cl)c1` [Cpd 93, 1-{4-[6-amino-5-(methoxyimino-methyl)-pyrimidin-4-yloxy]-2-chloro-phenyl}-3-(5-methyl-isoxazol-3-yl)-urea], the IC50 is 0.002 µM in experiment [1]; over 100 µM against murine Aurora-A; 3.12 µM in the experiment with HCT-116 colon carcinoma; over 10 µM against HER2 cytoplasmic domain; 10 µM in experiment [2]; 2.12 µM in the experiment with A375 malignant melanoma. At CDK1:Cyclin-B, the half-inhibitory concentration (IC50) was over 100 µM.
With `CON=Cc1c(N)ncnc1Oc1ccc(NC(=O)Nc2ccc(F)cc2)c(Cl)c1` [Cpd 60, 1-{4-[6-amino-5-(methoxyimino-methyl)-pyrimidin-4-yloxy]-2-chloro-phenyl}-3-(4-fluoro-phenyl)-urea], the IC50 is 0.0028 µM in experiment [1]; over 10 µM on murine Aurora-A; over 10 µM in the experiment with HCT-116 colon carcinoma; over 100 µM against HER2 cytoplasmic domain; over 10 µM in experiment [2]; over 10 µM in the experiment on A375 malignant melanoma. Also, the IC50 at CDK1:Cyclin-B is over 100 µM.
`CCNC(=O)Nc1ccc(Oc2ncnc(N)c2C=NOC)c(Cl)c1` [Cpd 71, 1-{4-[6-amino-5-(methoxyimino-methyl)-pyrimidin-4-yloxy]-3-chloro-phenyl}-3-ethyl-urea]: the IC50 in experiment [1] was 0.179 µM; on murine Aurora-A, over 10 µM; in the experiment with HCT-116 colon carcinoma it was 4.79 µM; at HER2 cytoplasmic domain, over 1 µM; in experiment [2], 3.98 µM; with A375 malignant melanoma, 3.09 µM. Further, the IC50 against CDK1:Cyclin-B is over 100 µM.
On to `CON=Cc1c(N)ncnc1Oc1ccc(NC(=O)Nc2cccc(Cl)c2)c(Cl)c1` [Cpd 59, 1-{4-[6-amino-5-(methoxyimino-methyl)-pyrimidin-4-yloxy]-2-chloro-phenyl}-3-(3-chloro-phenyl)-urea], for which the IC50 was 0.003 µM in experiment [1]; over 100 µM at murine Aurora-A; over 10 µM with HCT-116 colon carcinoma; over 1 µM on HER2 cytoplasmic domain; over 10 µM in experiment [2]; over 10 µM in the experiment with A375 malignant melanoma. The same compound came in with an IC50 at CDK1:Cyclin-B of over 100 µM.
As to `CNC(=O)Nc1ccc(Oc2ncnc(N)c2C=NOC)cc1Br` [Cpd 73, 1-{4-[6-amino-5-(methoxyimino-methyl)-pyrimidin-4-yloxy]-2-bromo-phenyl}-3-methyl-urea], the IC50 is over 100 µM in experiment [1]; over 10 µM against murine Aurora-A; over 10 µM in the experiment on HCT-116 colon carcinoma; over 1 µM against HER2 cytoplasmic domain; over 10 µM in experiment [2]; over 10 µM with A375 malignant melanoma. Besides, the IC50 against CDK1:Cyclin-B is over 10 µM.
